Data taken from PubChem BioAssay AID1996.
In brackets after ≈: the same amount, converted by molar mass.

Conditions: buffer; pH 7.4; 200.0 µM

SMILES	solubility kinetic [µg/mL]
O=[N+]([O-])c1ccc(CN2CCN(c3ccc(Cl)cc3)CC2)o1	4.7 (≈ 14.6 µM)
O=[N+]([O-])c1ccc(Nc2ccccn2)c([N+](=O)[O-])c1	2.7 (≈ 10.4 µM)
CCN1CCN(C(=O)CSc2nc(N)cc(N)n2)CC1	> 44.5
O=C(NNC(=S)NC(=O)c1ccc(F)cc1)c1ccncc1	> 47.7
CC(C)NC(=O)CN1C(=O)c2cccc3cccc1c23	9.8 (≈ 36.5 µM)
O=C(NCc1cccc(C(F)(F)F)c1)c1ccc(=O)[nH]c1	> 44.4
COc1ccc(NC(=O)c2ccc3nc[nH]c3c2)c(OC)c1	42.9 (≈ 144 µM)
COc1ccc(S(=O)(=O)NCCc2ccccc2)cc1OC	39.9 (≈ 124 µM)
CC(=O)NC1(c2ccccc2)CCN(CC(=O)N2CCC(C)CC2)CC1	> 53.6
O=C(CN1C(=O)COc2ccc(Cl)cc21)N1CCOCC1	> 46.6
CCOC(=O)c1cc2c(=O)[nH]ccc2nc1C(F)(F)F	> 42.9
Cc1ccc(C2(c3noc(CN4CCOCC4)n3)CCCC2)cc1	41.3 (≈ 126 µM)
C/C(=N\S(=O)(=O)c1ccc(C)cc1)NC(=S)Nc1ccccc1	2.1 (≈ 6.04 µM)
Cc1nc(-c2ccc([N+](=O)[O-])cc2)nc2[nH]ccc(=O)c12	0.9 (≈ 3.19 µM)
CCC(=O)c1cn(CC(=O)Nc2ccccc2)c2ccccc12	< 0.3
O=C(NNC(=O)c1cccs1)c1ccc(Cl)nc1	> 42.3
O=C(CCN1C(=O)C2CC=CCC2C1=O)NC1CCCCC1 (centres undefined)	> 45.7
Cc1ccc(S(=O)(=O)NCCN2CCOCC2)c(C)c1.Cl	> 50.2
CCC(NC(=S)NC1CCCCC1)c1ccc(C(C)C)cc1 (centres undefined)	1.6 (≈ 5.02 µM)
COc1ccc(C2C(C(C)=O)=C(O)C(=O)N2c2ccccn2)cc1 (centres undefined)	> 48.7

SMILES	solubility kinetic [µg/mL]
COc1ccccc1NC(=O)CNC(c1ccccc1)c1ccccc1	1.2 (≈ 3.46 µM)
CC(C)CN(C(=O)C1CC1)C1CCS(=O)(=O)C1 (centres undefined)	> 38.9
CSc1ccc(CN(C)CC(=O)NCc2ccccc2)cc1	41 (≈ 130 µM)
CC1=C(C(=O)c2ccccc2)C(c2ccc(O)cc2)NC(=S)N1 (centres undefined)	21.8 (≈ 67.2 µM)
CCOC(=O)C1CCN(S(=O)(=O)c2ccc3c4c(cccc24)C(=O)N3CC)CC1	10.4 (≈ 25 µM)
CC(C)(C)OC(=O)N1CCN(CCNC(=O)c2ccccc2)CC1	> 50
O=c1[nH]c(=O)n([C@H]2C[C@H](O)[C@@H](CO)O2)cc1C(F)(F)F	> 44.4
CC(C#N)Sc1ccc(S(=O)(=O)N2CCCC2)cn1 (centres undefined)	37.7 (≈ 127 µM)
O=C(COC(=O)CCC(=O)c1ccc(F)cc1)NC1CCCCC1	> 50.3
CCOc1cc(C(=O)Nc2ccc(N3CCOCC3)cc2)cc(Br)c1OC	2 (≈ 4.59 µM)
COC(=O)c1ccc(OCC(=O)NC2CCCCCC2)cc1	> 45.8
NC(=O)Cn1cc(C(=O)COc2ccccc2)c2ccccc21	14.6 (≈ 47.4 µM)
S=C(Nc1ccc2c(c1)OCCO2)Nc1ccc2c(c1)OCO2	> 49.6
CCC(C(=O)Nc1cccnc1Cl)c1ccccc1 (centres undefined)	30.2 (≈ 110 µM)
COc1cc(/C=C(\C#N)C(=O)NCC2CCCO2)ccc1OCCC(C)C (centres undefined)	7.9 (≈ 21.2 µM)
COc1ccc(C(=O)Nc2ccc(NC(=O)C3CC3)nc2)cc1	1.7 (≈ 5.46 µM)
CC(OC(=O)c1c[nH]c2ccccc12)C(=O)N1CCCC1 (centres undefined)	> 42.9
CC(=O)c1ccc(NC(=O)[C@@H]2CCCN2C(=O)OC(C)(C)C)cc1	> 49.9
Cc1ccc(NC(=O)CN2C(=O)NC3(CCCc4ccccc43)C2=O)c(Cl)c1 (centres undefined)	47 (≈ 118 µM)
Cc1cccc(CCN=C(N)NS(=O)(=O)c2ccccc2)c1	> 47.6

SMILES	solubility kinetic [µg/mL]
CCC1Oc2ccccc2N(CC(=O)NC2CCCC2)C1=O (centres undefined)	42.2 (≈ 140 µM)
CC(CCc1ccccc1)NC(=O)C1CC1 (centres undefined)	> 32.6
O=C(NCC1CCCO1)c1cccc(NC(=O)c2ccccc2)c1 (centres undefined)	> 48.7
Cc1ccc(NC(=S)NC(=O)C2CCCC2)cc1C	0.5 (≈ 1.81 µM)
O=C(CCS(=O)(=O)c1ccc(F)cc1)N1CCOCC1	> 45.2
Cc1cccc(C(=O)NCCC(=O)NCc2ccccc2F)c1	> 47.2
CC1CCC(NC(=O)C2CC(O)CN2S(=O)(=O)c2ccc([N+](=O)[O-])cc2)CC1 (centres undefined)	> 61.7
Clc1ccccc1-c1ncc(-c2ccccc2)o1	< 0.5
O=C(Nc1ccc(OC(F)F)cc1)c1ccccn1	31.5 (≈ 119 µM)
COc1ccc(CC(=O)Nc2ccc3c(c2)C(=O)N(CCC(=O)O)C3=O)cc1	53.2 (≈ 139 µM)
Cc1ccnc(NS(=O)(=O)c2ccc(Cl)nc2)c1	26.9 (≈ 94.8 µM)
Cc1ccc(C(O)(CNCc2ccccc2)c2ccccc2)cc1 (centres undefined)	26.2 (≈ 82.5 µM)
CCc1cccc(NC(=S)N(CCOC)C(C)c2ccco2)c1 (centres undefined)	7.9 (≈ 23.8 µM)
O=C(NC1CCCC1)c1cccc(Cl)c1	32.6 (≈ 146 µM)
CCN1CCN(c2ccc(N)c(C)c2)CC1	28.7 (≈ 131 µM)
S=C(Nc1cc(Cl)cc(Cl)c1)N1CCCC1	3 (≈ 10.9 µM)
CC1(c2ccccc2)NC(=O)N(CC(=O)Nc2ccccc2C(=O)NC2CC2)C1=O (centres undefined)	> 61
COc1cc2c(cc1OC)CC(=O)NC=C2	> 32.9
Cc1ccccc1C(=O)Nc1cccc(NC(=O)c2ccccc2[N+](=O)[O-])c1	1.2 (≈ 3.2 µM)
